According to publication PMC13107563 (Protein & Cell, 2025):
No end group written: not given here.

Legend:
NPFFR1 / NPFFR2 = settings: NPFFR1 vs NPFFR2; ref Quillet et al., 2016; cited from earlier work
Excerpt: NPFFR1 primarily couples to inhibitory Gi/o proteins and regulates di ...

NPFFR2 T220A = target: T1, NPFFR2 T220A (Homo sapiens, UniProt Q9Y5X5, T322A); assay: GloSensor cAMP accumulation assay, NPFFR2 T220A; type: cell-based; settings: Gi signaling, three independent experiments in triplicates
T1 construct: expressed in transfected cells; host or cells: HEK293T (described for NPFFR1 only)
T1 sequence (Q9Y5X5 103-522 T322A): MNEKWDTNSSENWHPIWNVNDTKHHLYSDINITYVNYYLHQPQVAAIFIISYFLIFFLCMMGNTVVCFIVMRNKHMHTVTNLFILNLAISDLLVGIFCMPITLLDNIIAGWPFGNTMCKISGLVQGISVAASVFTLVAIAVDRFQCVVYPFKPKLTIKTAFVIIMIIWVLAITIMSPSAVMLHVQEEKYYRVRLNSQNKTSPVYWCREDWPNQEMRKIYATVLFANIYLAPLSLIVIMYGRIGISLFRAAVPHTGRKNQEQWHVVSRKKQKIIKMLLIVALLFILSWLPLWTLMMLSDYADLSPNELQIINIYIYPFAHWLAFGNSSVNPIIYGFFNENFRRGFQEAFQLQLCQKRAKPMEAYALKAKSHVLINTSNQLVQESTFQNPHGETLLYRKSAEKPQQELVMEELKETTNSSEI

NPFFR2 (WT) = target: T2, NPFFR2 (WT) (Homo sapiens, UniProt Q9Y5X5); assay: GloSensor cAMP accumulation assay, WT NPFFR2 (Gi signaling); type: cell-based; settings: WT NPFFR2 (reference, 100 %WT), three independent experiments in triplicates
T2 construct: expressed in transfected cells; host or cells: HEK293T (described for NPFFR1 only)
T2 sequence (Q9Y5X5 103-522): as the sequence (Q9Y5X5 103-522 T322A) above, with A220T counted along it

Neuropeptide AF (AGEGLNSQFWSLAAPQRF; ends and bridges not checked; UniProt O15130 93-110, looked up) [NPAF, peptide derived from pro-NPFFA]
receptor preference (NPFFR1 / NPFFR2): prefer binding to NPFFR2

CC(C)C[C@H](NC(=O)[C@H](CC(N)=O)NC(=O)[C@@H]1CCCN1C(=O)[C@@H](N)C(C)C)C(=O)N1CCC[C@H]1C(=O)N[C@@H](CCC(N)=O)C(=O)N[C@@H](CCCNC(=N)N)C(=O)N[C@@H](Cc1ccccc1)C(N)=O [RFRP-3, RF-amide related peptide-3]
EC50 (NPFFR2 T220A): > 30.2 µM
Emax (NPFFR2 (WT)): 100%
